Like-named read-outs stand apart in the source and are kept apart here.
Columns and labels:
sEH [1] = target: T1, sEH (Homo sapiens, UniProt P34913); assay: sEH inhibitory activity; settings: for Inhibition of compounds against sEH, 50 μM (%): compound at 50 μM
T1 sequence (P34913 1-555): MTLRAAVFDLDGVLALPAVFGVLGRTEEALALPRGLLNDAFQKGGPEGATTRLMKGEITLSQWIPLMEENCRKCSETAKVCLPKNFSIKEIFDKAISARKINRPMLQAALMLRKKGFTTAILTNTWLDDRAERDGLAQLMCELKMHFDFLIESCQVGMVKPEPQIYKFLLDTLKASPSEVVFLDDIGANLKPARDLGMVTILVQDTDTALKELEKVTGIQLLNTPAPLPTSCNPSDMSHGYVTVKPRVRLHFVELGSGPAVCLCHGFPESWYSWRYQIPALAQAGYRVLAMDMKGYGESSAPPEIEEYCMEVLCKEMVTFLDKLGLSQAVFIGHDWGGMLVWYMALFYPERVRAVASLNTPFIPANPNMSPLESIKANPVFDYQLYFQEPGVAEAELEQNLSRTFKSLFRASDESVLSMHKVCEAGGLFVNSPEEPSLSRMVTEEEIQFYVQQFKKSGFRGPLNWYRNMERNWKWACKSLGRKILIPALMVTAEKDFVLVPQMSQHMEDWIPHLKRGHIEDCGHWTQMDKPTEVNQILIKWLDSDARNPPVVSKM

sEH [2] = target: T1, sEH; assay: Inhibitory kinetic analysis
[3] = read-out: Inhibition of compounds against sEH, IC50, PHOME 10 μM, 20 min, 37 °C, pH 7.4
[4] = PHOME 10 μM, 20 min, 37 °C, pH 7.4

Row | IC50 (sEH [1]; [3]) | Inhibition of compounds against sEH, 50 μM (%) (sEH [1]; [4]) | Compound | other results
1 | 31.5 ± 1.4 µM | – | 25-ethoxy-16-oxo-11-anhydro alisol A [Compound 18] | –
2 | > 50 µM | 17.63 ± 0.56% | 25-methoxy alisol F 23-acetate [Compound 20] | –
3 | 7.15 ± 1.09 µM | 75.31 ± 2.42% | CC(C)[C@@H](O)C[C@@H](C)C1=C2C[C@H](O)[C@H]3[C@@]4(C)CCC(=O)C(C)(C)[C@@H]4CC[C@]3(C)[C@@]2(C)CC1 [Compound 1, Alismanin B] | –
4 | 14.8 ± 1.1 µM | 78.54 ± 1.86% | COC(C[C@@H](C)C1=C2C[C@H](O)[C@H]3[C@@]4(C)CCC(=O)C(C)(C)[C@@H]4CC[C@]3(C)[C@@]2(C)CC1)OC [Compound 3, alismanin D] | –
5 | > 50 µM | 24.45 ± 1.03% | CC(C)(O)C1O[C@](C)(C2=C3C[C@H](O)[C@H]4[C@@]5(C)CCC(=O)C(C)(C)[C@@H]5CC[C@]4(C)[C@@]3(C)CC2=O)CC1O (stereo partly shown) [Compound 7, alismanol O] | –
6 | > 50 µM | 18.64 ± 0.45% | CC(CC(O)C(=O)C(C)(C)O)C1=C2CC(O)C3C4(C)CCC(=O)C(C)(C)C4CC(O)C3(C)C2(C)CC1 (stereo not drawn) [Compound 10, 7α-hydroxy-24-oxo alisol A] | –
7 | > 50 µM | 44.97 ± 0.95% | C=C(C)[C@H](O)[C@@H](O)C[C@@H](C)C1=C2C=C[C@H]3[C@@]4(C)CCC(=O)C(C)(C)[C@@H]4CC[C@]3(C)[C@@]2(C)CC1=O [Compound 12, alismanol B] | –
8 | 22.1 ± 1.4 µM | – | C[C@@H]1C[C@@H]([C@@H](O)C(C)(C)O)O[C@H]2C[C@@]3(C)C(=C12)CC[C@H]1[C@@]2(C)CCC(=O)C(C)(C)[C@@H]2CC[C@@]13C [Compound 13, 11-deoxy alisol F] | –
9 | > 50 µM | 18.30 ± 0.35% | C[C@@H]1C[C@@H]([C@@H](O)C(C)(C)O)O[C@H]2C[C@@]3(C)C(=C12)C[C@H](O)[C@H]1[C@@]2(C)CCC(=O)C(C)(C)[C@@H]2CC[C@@]13C [Compound 14, alisol F] | –
10 | 9.57 ± 0.88 µM | 78.66 ± 2.19% | CCOC(C)(C)[C@H](O)[C@@H](O)C[C@@H](C)C1=C2C[C@H](O)[C@H]3[C@@]4(C)CCC(=O)C(C)(C)[C@@H]4CC[C@]3(C)[C@@]2(C)CC1 [Compound 15, 25-O-ethyl alisol A] | –
11 | 21.2 ± 0.5 µM | – | C=C(C)[C@H](O)[C@@H]1C[C@@H](C)C2=C3C[C@H](O)[C@H]4[C@@]5(C)CCC(=O)C(C)(C)[C@@H]5CC[C@]4(C)[C@@]3(C)C[C@@H]2O1 [Compound 16, 25-anhydro alisol F] | –
12 | 22.2 ± 1 µM | – | CC1(C)O[C@@H]1[C@@H](O)C[C@](C)(O)C1=C2C[C@H](O)[C@H]3[C@@]4(C)CCC(=O)C(C)(C)[C@@H]4CC[C@]3(C)[C@@]2(C)CC1=O [Compound 19, 20-hydroxy alisol C] | –
13 | 14.6 ± 1.6 µM | – | C=C(C)[C@@H]1OC(C)(C)O[C@H]1C[C@@H](C)C1=C2C[C@H](O)[C@H]3[C@@]4(C)CCC(=O)C(C)(C)[C@@H]4CC[C@]3(C)[C@@]2(C)CC1 [Compound 24, alisol G (23, 24)-diol acetonide] | –
14 | > 50 µM | 37.63 ± 0.86% | alisol B 23-acetate [Compound 9] | –

The next lines start with the compound.

Row | Compound | IC50 (sEH [1]; [3]) | Inhibition of compounds against sEH, 50 μM (%) (sEH [1]; [4]) | other results
15 | 16-oxo-11-anhydro alisol A 23,24-acetonide [Compound 11] | 36.3 ± 4 µM | – | –
16 | C[C@H](C[C@H](O)[C@@H](O)C(C)(C)O)C1=C2C[C@H](O)[C@H]3[C@@]4(C)CCC(=O)C(C)(C)[C@@H]4CC[C@]3(C)[C@@]2(C)CC1 [Compound 2, alisol A] | – | – | IC50 (sEH [1]): > 50 µM; inhibition at 50 µM (sEH [1]; pH 7.4, read-out: Inhibition of compounds against sEH, 50 μM (%)): 27.3 ± 2.81%
17 | C=C(C)[C@@H](O)[C@@H](O)C[C@@H](C)C1=C2CC[C@H]3[C@@]4(C)CCC(=O)C(C)(C)[C@@H]4CC[C@]3(C)[C@@]2(C)CC1 [Compound 4, 11-deoxy-25-anhydro alisol E] | 5.94 ± 0.54 µM | 71.21 ± 1.56% | Inhibition type (sEH [2]; from Lineweaver-Burk plots): mixed-type competitive; Ki (sEH [2]; inhibition constant from slope plots): 12.6 µM
18 | C=C(C)[C@@H](O)[C@@H]1C[C@@H](C)[C@@]2(CC[C@@]3(C)C2=C[C@H](OC)[C@H]2[C@@]4(C)CCC(=O)C(C)(C)[C@@H]4CC[C@@]23C)O1 [Compound 6, alismanin F] | 14.6 ± 1.1 µM | 71.6 ± 2.12% | –
19 | CC(CC(O)C(O)C(C)(C)O)C1=C2C(O)C(O)C3C4(C)CCC(=O)C(C)(C)C4CC(O)C3(C)C2(C)CC1 (stereo not drawn) [Compound 8, 7α,12α-dihydroxyalisol A] | > 50 µM | 44.42 ± 1.43% | –
20 | COC(=O)C[C@@H](C)C1=C2[C@H](O)C[C@H]3[C@@]4(C)CCC(=O)C(C)(C)[C@@H]4CC[C@]3(C)[C@@]2(C)C[C@@H]1OC [Compound 17, alismanin E] | > 50 µM | 49.44 ± 1.15% | –
21 | CC(=O)O[C@H]([C@@H]1C[C@@H](C)C2=C3[C@H](O)C[C@H]4[C@@]5(C)CCC(=O)C(C)(C)[C@@H]5CC[C@]4(C)[C@@]3(C)C[C@@H]2O1)C(C)(C)O [Compound 21, 11-deoxy-12β-hydroxy alisol F 24-acetate] | > 50 µM | 39.33 ± 0.92% | –
22 | C[C@@H]1C[C@@H]([C@@H](O)C(C)(C)O)O[C@H]2C[C@@]3(C)C(=C12)[C@H](O)C[C@H]1[C@@]2(C)CCC(=O)C(C)(C)[C@@H]2CC[C@@]13C [Compound 22, 11-deoxy-12β-hydroxy alisol F] | > 50 µM | 17.96 ± 0.69% | –
23 | COC1CC2(C)C(=C1C(C)CC(O)C(OC(C)=O)C(C)(C)O)C(O)CC1C3(C)CCC(=O)C(C)(C)C3CCC12C (stereo not drawn) [Compound 23, 1-deoxy-12β-hydroxy-16β-methoxy alisol A 24-acetate] | > 50 µM | 16.27 ± 0.72% | –
24 | CC(=O)O[C@H]([C@@H](O)C[C@@H](C)C1=C2C[C@H](O)[C@H]3[C@@]4(C)CCC(=O)C(C)(C)[C@@H]4CC[C@]3(C)[C@@]2(C)CC1)C(C)(C)O [Compound 25, alisol A 24-acetate] | 21.4 ± 1.7 µM | – | –
